The subject of assay [1] is HIV gp160(843-855) peptide. Format: in vivo. The settings on record: B10.A (5R) mice, peptides in saline solution, serum day 35. As for the experimental part: An ELISA assay for antibody responses following immunization with the experimental peptides indicated above was performed as follows. Fifty microliters (μl) of a solution of the coating peptide at 2 μg/well in 0.1 M carbonate buffer, pH 9.5 was added to each well of a 96-well Nunc-immunoplate (#442404) for an overnight incubation at 4° C. After aspiration, 250 μl of phosphate-buffer saline solution containing 3% fetal bovine serum (assay diluent) was added to each well for 2 hr at RT. After washing three times with assay diluent, 50 μl of 20-times diluted mouse serum in 1:3 serial dilution in assay diluent was added to each well for 2 hr at RT. After washing three times with assay diluent, 50 μl of 1 ÿg/ml biotinylated goat anti-mouse IgG1 or IgG2a was added to each well and incubated for 1 hr at RT. After washing three times with assay diluent, 50 μl of streptavidin-horse radish peroxidase conjugate (1:1000) was added to each well and incubated for 30 min at RT. After washing three times with assay diluent, 100 μl of tetramethylbenzidine/H2O2 solution (Pharmingen 264KK) was added to each well for 15 min in the dark at room temperature. The reaction was stopped with 100 μl 1N H2SO4 in each well and the absorbance was read immediately at 450 nm.
B10.A (5R) mice (H-2^k/b) were immunized with 20 nmole of peptides in 50 μl phosphate-buffered saline solution, intramuscularly in right and left rear legs on days 1 and 2, respectively. On day 14 the mice were boosted intramuscularly with 40 nmole of peptides in 200 μl Hank's balanced salts solution intramuscularly in a rear leg. On day 30 the mice were boosted intravenously with 40 nmole peptides dissolved in Hank's balanced salts solution (HBSS). On day 35 the mice were sacrificed and serum samples were assayed for antibody titers against the HIV gp160(843-855) peptide.

For assay [2], the system named is normal donor (DR0701) PBMC. Format: cell-based, human.
In assay [3] the test system is normal donor (DR0402) PBMC. Format: cell-based, human.

Data on 13 substances can be found in patent publication US8815249B2 (priority 1999, dated 2014).

Read-outs that look alike come from different tables or passages of the source. Non-standard residues stand in square brackets, D forms with d. Ava = NCCCCC(=O)O

Turning to “Ac-LRMK-ava-AYRAIRHIPR-NH2 (Ac-LRMK[Ava]AYRAIRHIPR-NH2; SMILES CC[C@H](C)[C@H](NC(=O)[C@H](C)NC(=O)[C@H](CCCNC(=N)N)NC(=O)[C@H](Cc1ccc(O)cc1)NC(=O)[C@H](C)NC(=O)CCCCNC(=O)[C@H](CCCCN)NC(=O)[C@H](CCSC)NC(=O)[C@H](CCCNC(=N)N)NC(=O)[C@H](CC(C)C)NC(C)=O)C(=O)N[C@@H](CCCNC(=N)N)C(=O)N[C@@H](Cc1c[nH]cn1)C(=O)N[C@H](C(=O)N1CCC[C@H]1C(=O)N[C@@H](CCCNC(=N)N)C(N)=O)[C@@H](C)CC) [Ii-Key/one-ava/gp160(843-855)]”, the “Antibody induction, ELISA against HIV gp160(843-855) peptide” value in assay [1] (Dilution^−1 20) is 0.600; in assay [1] (Dilution^−1 60), 0.157; in assay [1] (Dilution^−1 180), 0.073; in assay [1] (Dilution^−1 540), 0.024.
In assay [2], “AE-Her-48 (Ac-LRMK[Ava]VGSPYVSRLLGICL-NH2; SMILES CC[C@H](C)[C@H](NC(=O)CNC(=O)[C@H](CC(C)C)NC(=O)[C@H](CC(C)C)NC(=O)[C@H](CCCNC(=N)N)NC(=O)[C@H](CO)NC(=O)[C@@H](NC(=O)[C@H](Cc1ccc(O)cc1)NC(=O)[C@@H]1CCCN1C(=O)[C@H](CO)NC(=O)CNC(=O)[C@@H](NC(=O)CCCCNC(=O)[C@H](CCCCN)NC(=O)[C@H](CCSC)NC(=O)[C@H](CCCNC(=N)N)NC(=O)[C@H](CC(C)C)NC(C)=O)C(C)C)C(C)C)C(=O)N[C@@H](CS)C(=O)N[C@@H](CC(C)C)C(N)=O)” registered an IFN-γ spots pulsed of 1770 spots and an IFN-γ spots unpulsed of 212 spots.
As for AE-TYR-1 (Ac-ALHIYMDGTMSQVQGSA-NH2), in assay [3], the IFN-γ spots pulsed stood at 120 spots and the IFN-γ spots unpulsed was 0 spots.
As to “Ac-LRMK-ava-ava-AYRAIRHIPR-NH2 (Ac-LRMK[Ava][Ava]AYRAIRHIPR-NH2; SMILES CC[C@H](C)[C@H](NC(=O)[C@H](C)NC(=O)[C@H](CCCNC(=N)N)NC(=O)[C@H](Cc1ccc(O)cc1)NC(=O)[C@H](C)NC(=O)CCCCNC(=O)CCCCNC(=O)[C@H](CCCCN)NC(=O)[C@H](CCSC)NC(=O)[C@H](CCCNC(=N)N)NC(=O)[C@H](CC(C)C)NC(C)=O)C(=O)N[C@@H](CCCNC(=N)N)C(=O)N[C@@H](Cc1c[nH]cn1)C(=O)N[C@H](C(=O)N1CCC[C@H]1C(=O)N[C@@H](CCCNC(=N)N)C(N)=O)[C@@H](C)CC) [Ii-Key/two-ava/gp160(843-855)]”, the “Antibody induction, ELISA against HIV gp160(843-855) peptide” value was determined as 0.131 in assay [1] (Dilution^−1 20), 0.039 in assay [1] (Dilution^−1 60), 0.027 in assay [1] (Dilution^−1 180) and 0.003 in assay [1] (Dilution^−1 540).
In assay [3], “AE-TYR-3 (Ac-LRMK[Ava]NALHIYMDGTMSQVQGSA-NH2; SMILES CC[C@H](C)[C@H](NC(=O)[C@H](Cc1c[nH]cn1)NC(=O)[C@H](CC(C)C)NC(=O)[C@H](C)NC(=O)[C@H](CC(N)=O)NC(=O)CCCCNC(=O)[C@H](CCCCN)NC(=O)[C@H](CCSC)NC(=O)[C@H](CCCNC(=N)N)NC(=O)[C@H](CC(C)C)NC(C)=O)C(=O)N[C@@H](Cc1ccc(O)cc1)C(=O)N[C@@H](CCSC)C(=O)N[C@@H](CC(=O)O)C(=O)NCC(=O)N[C@H](C(=O)N[C@@H](CCSC)C(=O)N[C@@H](CO)C(=O)N[C@@H](CCC(N)=O)C(=O)N[C@H](C(=O)N[C@@H](CCC(N)=O)C(=O)NCC(=O)N[C@@H](CO)C(=O)N[C@@H](C)C(N)=O)C(C)C)[C@@H](C)O)” showed an IFN-γ spots pulsed of 310 spots and an IFN-γ spots unpulsed of 70 spots.
In assay [2], “AE-Her-36 (Ac-GVGSPYVSRLLGICL-NH2; listed as Homo sapiens)” returned an IFN-γ spots pulsed of 100 spots and an IFN-γ spots unpulsed of 4 spots.
In assay [2], AE-Her-37 (Ac-LRMKGVGSPYVSRLLGICL-NH2) yielded an IFN-γ spots pulsed of 560 spots and an IFN-γ spots unpulsed of 65 spots.
In assay [3], “AE-TYR-4 (Ac-LRMK[Ava]ALHIYMDGTMSQVQGSA-NH2; SMILES CC[C@H](C)[C@H](NC(=O)[C@H](Cc1c[nH]cn1)NC(=O)[C@H](CC(C)C)NC(=O)[C@H](C)NC(=O)CCCCNC(=O)[C@H](CCCCN)NC(=O)[C@H](CCSC)NC(=O)[C@H](CCCNC(=N)N)NC(=O)[C@H](CC(C)C)NC(C)=O)C(=O)N[C@@H](Cc1ccc(O)cc1)C(=O)N[C@@H](CCSC)C(=O)N[C@@H](CC(=O)O)C(=O)NCC(=O)N[C@H](C(=O)N[C@@H](CCSC)C(=O)N[C@@H](CO)C(=O)N[C@@H](CCC(N)=O)C(=O)N[C@H](C(=O)N[C@@H](CCC(N)=O)C(=O)NCC(=O)N[C@@H](CO)C(=O)N[C@@H](C)C(N)=O)C(C)C)[C@@H](C)O)” displayed an IFN-γ spots pulsed of 620 spots and an IFN-γ spots unpulsed of 340 spots.
With “AE-Her-38 (Ac-LRMK[Ava]SPYVSRLLGICL-NH2; SMILES CC[C@H](C)[C@H](NC(=O)CNC(=O)[C@H](CC(C)C)NC(=O)[C@H](CC(C)C)NC(=O)[C@H](CCCNC(=N)N)NC(=O)[C@H](CO)NC(=O)[C@@H](NC(=O)[C@H](Cc1ccc(O)cc1)NC(=O)[C@@H]1CCCN1C(=O)[C@H](CO)NC(=O)CCCCNC(=O)[C@H](CCCCN)NC(=O)[C@H](CCSC)NC(=O)[C@H](CCCNC(=N)N)NC(=O)[C@H](CC(C)C)NC(C)=O)C(C)C)C(=O)N[C@@H](CS)C(=O)N[C@@H](CC(C)C)C(N)=O)”, in assay [2], the IFN-γ spots pulsed was determined as 210 spots and the IFN-γ spots unpulsed is recorded as 27 spots.
Taken in the same sequence, the figures for “AE-Her-47 (Ac-LRMK[Ava]GSPYVSRLLGICL-NH2; SMILES CC[C@H](C)[C@H](NC(=O)CNC(=O)[C@H](CC(C)C)NC(=O)[C@H](CC(C)C)NC(=O)[C@H](CCCNC(=N)N)NC(=O)[C@H](CO)NC(=O)[C@@H](NC(=O)[C@H](Cc1ccc(O)cc1)NC(=O)[C@@H]1CCCN1C(=O)[C@H](CO)NC(=O)CNC(=O)CCCCNC(=O)[C@H](CCCCN)NC(=O)[C@H](CCSC)NC(=O)[C@H](CCCNC(=N)N)NC(=O)[C@H](CC(C)C)NC(C)=O)C(C)C)C(=O)N[C@@H](CS)C(=O)N[C@@H](CC(C)C)C(N)=O)” were 380 spots and 23 spots.
In assay [3], “AE-TYR-6 (Ac-LRMK[Ava]HIYMDGTMSQVQGSA-NH2; SMILES CC[C@H](C)[C@H](NC(=O)[C@H](Cc1c[nH]cn1)NC(=O)CCCCNC(=O)[C@H](CCCCN)NC(=O)[C@H](CCSC)NC(=O)[C@H](CCCNC(=N)N)NC(=O)[C@H](CC(C)C)NC(C)=O)C(=O)N[C@@H](Cc1ccc(O)cc1)C(=O)N[C@@H](CCSC)C(=O)N[C@@H](CC(=O)O)C(=O)NCC(=O)N[C@H](C(=O)N[C@@H](CCSC)C(=O)N[C@@H](CO)C(=O)N[C@@H](CCC(N)=O)C(=O)N[C@H](C(=O)N[C@@H](CCC(N)=O)C(=O)NCC(=O)N[C@@H](CO)C(=O)N[C@@H](C)C(N)=O)C(C)C)[C@@H](C)O)” displayed an IFN-γ spots pulsed of 650 spots and an IFN-γ spots unpulsed of 280 spots.
In assay [2], “AE-Her-39 (Ac-LRMK[Ava]GVGSPYVSRLLGICL-NH2; SMILES CC[C@H](C)[C@H](NC(=O)CNC(=O)[C@H](CC(C)C)NC(=O)[C@H](CC(C)C)NC(=O)[C@H](CCCNC(=N)N)NC(=O)[C@H](CO)NC(=O)[C@@H](NC(=O)[C@H](Cc1ccc(O)cc1)NC(=O)[C@@H]1CCCN1C(=O)[C@H](CO)NC(=O)CNC(=O)[C@@H](NC(=O)CNC(=O)CCCCNC(=O)[C@H](CCCCN)NC(=O)[C@H](CCSC)NC(=O)[C@H](CCCNC(=N)N)NC(=O)[C@H](CC(C)C)NC(C)=O)C(C)C)C(C)C)C(=O)N[C@@H](CS)C(=O)N[C@@H](CC(C)C)C(N)=O)” had an IFN-γ spots pulsed of 160 spots and an IFN-γ spots unpulsed of 24 spots.
In assay [3], AE-TYR-2 (Ac-HNALHIYMDGTMSQVQGSA-NH2) displayed an IFN-γ spots pulsed of 360 spots and an IFN-γ spots unpulsed of 140 spots.
